Results from PMC12505902, “Inhibitors of trehalose-6-phosphate synthase activity in fungal pathogens compromise thermal tolerance pathways” (mBio, 2025).

How the values were obtained:
Format in all cases: cell-based
C. gattii = test: Fungicidal spot assay on compound-free YPD plates; conditions: 37°C exposure
Procedure: (§1) Fig 4 4456dh inhibits the growth of Candida and Cryptococcus species. Two-fold dose response assays were performed against (A) C. albicans at 42°C and C. auris at 39°C, (B) C. glabrata at 42°C, and (C) C. neoformans, C. deneoformans, and C. gattii at 37°C. 4456dh was administered at the concentrations indicated. Cultures were grown in YPD at the listed temperatures for 48 hours for Candida species and 72 hours for Cryptococcus species. Experimental temperatures reflect the temperatures at which the fungi experience heat stress. Left: relative growth of treated samples was calculated by averaging technical triplicates and normalizing the OD600 of each treated well to the average OD600 of the untreated WT controls, after the absorbance due to the compound was subtracted. The MIC80 values, calculated based on the OD600 values, are indicated in the white text on each heat map. Right: representative spot assays show the ability of cells to grow after exposure to 4456dh and indicate fungicidal activity of 4456dh. TEXT PRINTED IN THE PICTURE: (A) 4456dh: C. albicans 42 °C: 13 mM; C. auris 39 °C: 7 mM | (B) 4456dh: C. glabrata 42 °C: 7.8 μM | (C) 4456dh: C. neoformans 37 °C: 7 mM; C. deneoformans 37 °C: 3 mM; C. gattii 37 °C: 7 mM DOUBTS OF THE COPYIST ABOUT THIS PICTURE: 4456dh, all panels: the picture prints no measure name with the white values on the heat maps, so each value is given only with its organism and temperature
(§2) We next tested the activity of 4456dh on Cryptococcus species at 37°C.
(§3) 123 hours. […]
(§4) 126 medium. Growth was plotted as a heat map using Excel.
(§5) 127 Wild-t y pe C. neoformans strains H99, wild-type C. deneoformans JEC21 and wild- t y pe C. gattii
(§6) 128 R265 were cultured overnight in YPD (yeast-peptone- dextrose) medium at 30 °C. Growth of the
(§7) 129 overnight cultures was quantified by measuring the OD600 and corrected for the background
(§8) 130 absorbance of the medium. Antifungal potency for 4456dh was assessed by minimum inhibitory
(§9) 131 concentration (MIC) dose-response assays performed under standard Clinical and Lab Standards
(§10) 132 Institute (CLSI) conditions. A volume of 125 µL from each cell suspension was dispensed into the
(§11) 133 wells of 96-well flat-bottom microtiter plates (Corning). An additional 25 µL of 4456dh from a series
(§12) 134 of dilutions from the 157 mM stock solution prepared in water was added to each well. Following […]
(§13) 137 replicates. Growth, as determined by a reading of absorbance at 600 nm, was normalized to
(§14) 138 untreated controls and was corrected for the absorbance of 4456dh in the YPD medium. […]
(§15) 139 minimum inhibitory concentration causing 80% growth reduction, or MIC80, was determined based […]
(§16) 157 Optical density (OD600) was determined with an Infinite PRO plate reader ( Tecan). […]

C. deneoformans [1] = test: Fungicidal spot assay on compound-free YPD plates
Procedure: as §1, §2, §3, §4, §5, §6, §7, §8, §9, §10, §11, §12, §13, §14, §15, §16

C. neoformans = test: Fungicidal spot assay on compound-free YPD plates; conditions: 37°C exposure
Procedure: as §1, §2, §3, §4, §5, §6, §7, §8, §9, §10, §11, §12, §13, §14, §15, §16

C. auris = test: Fungicidal spot assay on compound-free YPD plates; conditions: 30°C and 39°C exposure
Procedure: (§17) We tested the effects of 4456dh on live cells by determining the minimal inhibitory concentration causing 80% growth reduction (MIC80). Wild-type (WT) C. albicans and C. auris cells were incubated with 4456dh in yeast-peptone-dextrose (YPD) medium at 42°C and 39°C, respectively (Fig. 4A). […] 4456dh inhibited the growth of C. auris with an MIC80 of 7 mM at 39°C (Fig. 4A). The MIC80 increased at 30°C to greater than 13 mM (Fig. S7A).
(§18) Fig 4 4456dh inhibits the growth of Candida and Cryptococcus species. Two-fold dose response assays were performed against (A) C. albicans at 42°C and C. auris at 39°C, (B) C. glabrata at 42°C, and (C) C. neoformans, C. deneoformans, and C. gattii at 37°C. 4456dh was administered at the concentrations indicated. […] Left: relative growth of treated samples was calculated by averaging technical triplicates and normalizing the OD600 of each treated well to the average OD600 of the untreated WT controls, after the absorbance due to the compound was subtracted. The MIC80 values, calculated based on the OD600 values, are indicated in the white text on each heat map. […]
(§19) 124 technical replicates. Growth, as determined by a reading of absorbance at 600 nm, was
(§20) 125 normalized to untreated controls and was corrected for the absorbance of 4456dh in the YPD […]
as §7
(§21) 130 absorbance of the medium. […]

C. albicans = test: Fungicidal spot assay on compound-free YPD plates; conditions: 42°C exposure, then compound-free YPD plates
Procedure: as §17, §18, §19, §20, §7, §21

C. deneoformans [2] = test: Zone of inhibition assay
Procedure: To test this hypothesis, we performed zone of inhibition studies in the C. deneoformans background (Fig. S8A).
123 hours. All dose- response assays were performed in biological triplicate with a minimum of three
as §19
125 normalized to untreated controls and was corrected for the absorbance of 4456dh in the YPD
as §4, §5, §6, §7, §8
131 concentration (MIC) dose-response assays performed under standard Clinical and Lab Standards […]
as §13, §14, §15
149 mM 4456dh. The OD600 was determined followed by dilution of overnight cultures to an equivalent […]
as §16

`Cn1cc(-c2csc(NC(=O)Cc3ccccn3)n2)cn1` [Compound 4456dh] was tested, and the fungicidal activity (C. gattii) was “Fungicidal activity of 4456dh was also detected”, the fungicidal activity (C. deneoformans [1]; 30°C, 13 mM 4456dh) was “displayed fungicidal activity” and the fungicidal activity (C. deneoformans [1]; 37°C exposure) was “Fungicidal activity of 4456dh was also detected”. The fungicidal activity (C. neoformans) was “Fungicidal activity of 4456dh was also detected”, the fungicidal activity (C. auris) was “fungicidal activity of 4456dh on C. auris was also detected” and the fungicidal activity (C. albicans) was “temperature-dependent fungicidal activity”. The zone of inhibition (C. deneoformans [2]; C. deneoformans tps1Δ cells, 30°C) was “diffuse yet visible zone of inhibition” and the zone of inhibition (C. deneoformans [2]; C. deneoformans wild-type (JEC21, JEC20), 37°C) was “distinct zone of inhibition”.
